Measured values from patent US10323018B2 (Millennium Pharmaceuticals, Inc., priority 2015, dated 2019).

Tests used:
hNAMPT protein = hNAMPT protein (Homo sapiens (Human), UniProt P43490); assay: NAMPT enzyme assay (TR-FRET/HTRF with BodiPY ligand); format: binding; conditions: for inhibition at 1 µM: read-out: Percent Inhibition; for IC50: NAMPT inhibition, IC50 range class
Method in brief: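 Ligand displacement by TR-FRET: BodiPY emission (520 nm) over terbium (486 nm) after 320 nm excitation. Compound, BodiPY ligand, hNAMPT and anti-6His-Tb incubated 1 h at room temperature, dark, at pH 7.5. Percent inhibition computed versus DMSO; concentration-response curves fitted for IC50.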

PC3 cells = assay: PC3 growth inhibition (Cell-titer glo, 72 hours); format: cell-based; conditions: for viability at 1.667 µM: Homo sapiens, PC-3, 72 h, read-out: Percent Viability, PC3 cells, compound concentration 1.667 μM, 72 hours
Method in brief: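 After 72 h compound treatment in AIM serum-free medium (37 °C, 5% CO2), viability of overnight-plated PC3 cells (8×10^4 cells/ml, RPMI1640-maintained) is read by CellTiter-Glo luminescence versus DMSO. Curves give GI50, LD50 or single-concentration % remaining viability.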

[1] = NAMPT inhibition at compound concentration 1 μM

Sequence of hNAMPT protein (P43490 whole entry): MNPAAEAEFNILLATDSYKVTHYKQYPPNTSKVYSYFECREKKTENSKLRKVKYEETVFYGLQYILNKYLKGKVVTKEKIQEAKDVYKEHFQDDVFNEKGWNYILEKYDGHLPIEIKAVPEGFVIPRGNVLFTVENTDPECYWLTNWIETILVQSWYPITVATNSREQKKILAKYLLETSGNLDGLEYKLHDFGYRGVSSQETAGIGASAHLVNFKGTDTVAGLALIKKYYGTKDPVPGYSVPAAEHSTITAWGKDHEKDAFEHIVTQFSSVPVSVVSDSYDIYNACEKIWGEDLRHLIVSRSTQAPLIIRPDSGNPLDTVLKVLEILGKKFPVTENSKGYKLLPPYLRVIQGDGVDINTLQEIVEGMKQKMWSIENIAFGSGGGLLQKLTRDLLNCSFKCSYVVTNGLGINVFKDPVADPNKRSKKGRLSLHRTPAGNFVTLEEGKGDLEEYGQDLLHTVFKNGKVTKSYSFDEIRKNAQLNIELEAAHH

Compound | inhibition at 1 µM (hNAMPT protein; [1]) [%] | IC50 (hNAMPT protein) [nM] | viability at 1.667 µM (PC3 cells) [%] | Percent Inhibition (hNAMPT protein; [1]) [%] | Percent Viability (PC3 cells; human, 72 h, 1.667 µM) [%]
CCOc1cc(-c2ccc(OC)nc2)nc2cc(C(=O)NCCc3cn[nH]c3C)ccc12 [Compound I-153, 4-ethoxy-2-(6-methoxypyridin-3-yl)-N-[2-(5-methyl-1H-pyrazol-4-yl)ethyl]quinoline-7-carboxamide] | 98 | 10 to 50 | 2 |  | 
CCOc1cc(-c2ccnc(OC)c2)nc2cc(C(=O)NCCc3[nH]nnc3C)ccc12 [Compound I-83, 4-ethoxy-2-(2-methoxypyridin-4-yl)-N-[2-(4-methyl-1H-1,2,3-triazol-5-yl)ethyl]quinoline-7-carboxamide] | 96 | 10 to 50 | 2 |  | 
COCCOc1cc(-c2ccc(F)cc2)nc2cc(C(=O)NCCc3c[nH]nc3C)ccc12 [Compound I-126, 2-(4-fluorophenyl)-4-(2-methoxyethoxy)-N-[2-(3-methyl-1H-pyrazol-4-yl)ethyl]quinoline-7-carboxamide] | 91 | 50 to 100 | 2 |  | 
CCOc1cc(-c2ccnc(C)c2)nc2cc(C(=O)NCCCc3ccn[nH]3)ccc12 [Compound I-149, 4-ethoxy-2-(2-methylpyridin-4-yl)-N-[3-(1H-pyrazol-5-yl)propyl]quinoline-7-carboxamide] | 96 | 10 to 50 | 2 |  | 
CCOc1cc(-c2ccc(C)nc2)nc2cc(C(=O)NCCCc3[nH]nnc3C)ccc12 [Compound I-112, 4-ethoxy-2-(6-methylpyridin-3-yl)-N-[3-(4-methyl-1H-1,2,3-triazol-5-yl)propyl]quinoline-7-carboxamide] | 99 | 10 to 50 | 2 |  | 
CCOc1cc(-c2ccnc(C)c2)nc2cc(C(=O)NCc3nc4cnccc4[nH]3)ccc12 [Compound I-99, 4-ethoxy-N-(1H-imidazo[4,5-c]pyridin-2-ylmethyl)-2-(2-methylpyridin-4-yl)quinoline-7-carboxamide] | > 99 | < 10 | 2 |  | 
CCOc1cc(-c2ccncc2)nc2cc(C(=O)NCCCc3nnc[nH]3)ccc12 [Compound I-214, 4-ethoxy-2-(pyridin-4-yl)-N-[3-(4H-1,2,4-triazol-3-yl)propyl]quinoline-7-carboxamide] | 97 | 10 to 50 | 1 |  | 
COCCOc1cc(-c2ccc(F)cc2)nc2cc(C(=O)NCCCc3ncn[nH]3)ccc12 [Compound I-124, N-(3-(4H-1,2,4-triazol-3-yl)propyl)-2-(4-fluorophenyl)-4-(2-methoxyethoxy)quinoline-7-carboxamide] | 92 | 50 to 100 | 2 |  | 
CCOc1cc(-c2ccc(OC)nc2)nc2cc(C(=O)NCCCc3cnn[nH]3)ccc12 [Compound I-102, 4-ethoxy-2-(6-methoxypyridin-3-yl)-N-[3-(1H-1,2,3-triazol-5-yl)propyl]quinoline-7-carboxamide] | 99 | < 10 | 2 |  | 
CCOc1cc(-c2cccc(S(C)(=O)=O)c2)nc2cc(C(=O)NCCCc3nnc[nH]3)ccc12 [Compound I-137, 4-ethoxy-2-[3-(methylsulfonyl)phenyl]-N-[3-(4H-1,2,4-triazol-3-yl)propyl]quinoline-7-carboxamide] | 97 | 10 to 50 | 2 |  | 
COCCOc1nc(-c2ccc(F)cc2)nc2cc(C(=O)NCCCc3ncc[nH]3)ccc12 [Compound I-37, 2-(4-fluorophenyl)-N-[3-(1H-imidazol-2-yl)propyl]-4-(2-methoxyethoxy)quinazoline-7-carboxamide] | > 99 | < 10 | 2 |  | 
CCOc1cc(-c2cc(F)ccc2OC)nc2cc(C(=O)NCc3nc4cnccc4[nH]3)ccc12 [Compound I-187, 4-ethoxy-2-(5-fluoro-2-methoxyphenyl)-N-(1H-imidazo[4,5-c]pyridin-2-ylmethyl)quinoline-7-carboxamide] | > 99 | < 10 | 3 |  | 
CCOc1cc(-c2cnc(OC)cc2C)nc2cc(C(=O)NCCCc3nnc[nH]3)ccc12 [Compound I-145, 4-ethoxy-2-(6-methoxy-4-methyl-3-pyridyl)-N-[3-(4H-1,2,4-triazol-3-yl)propyl]quinoline-7-carboxamide] | 86 | > 100 | 2 |  | 
CCOc1cc(-c2ccc(F)cc2)nc2cc(C(=O)NCC3CC3c3ncc[nH]3)ccc12 (single isomer, unassigned) [Compound I-51, 4-Ethoxy-2-(4-fluorophenyl)-N-{[trans-(1,2)-2-(1H-imidazol-2-yl)cyclopropyl]methyl}quinoline-7-carboxamide] |  | 10 to 50 |  | 98 | 4
CCOc1cc(-c2ccc(Cl)cc2)nc2cc(C(=O)NCCCc3nnc[nH]3)ccc12 [Compound I-198] | 94 |  | 3 |  | 
CCOc1cc(-c2ccnc(C)c2)nc2cc(C(=O)NCCc3c[nH]nc3C)ccc12 [Compound I-146, 4-ethoxy-N-[2-(3-methyl-1H-pyrazol-4-yl)ethyl]-2-(2-methylpyridin-4-yl)quinoline-7-carboxamide] | 87 | 50 to 100 | 2 |  | 
CCOc1cc(-c2ccc(OC)nc2OC)nc2cc(C(=O)NCCCc3nnc[nH]3)ccc12 [Compound I-143, 2-(2,6-dimethoxypyridin-3-yl)-4-ethoxy-N-[3-(4H-1,2,4-triazol-3-yl)propyl]quinoline-7-carboxamide] | 97 | 10 to 50 | 2 |  | 
CCOc1cc(-c2ccc(=O)n(C)c2)nc2cc(C(=O)NCCc3c[nH]nc3C)ccc12 [Compound I-98, 4-ethoxy-2-(1-methyl-6-oxo-1,6-dihydropyridin-3-yl)-N-[2-(3-methyl-1H-pyrazol-4-yl)ethyl]quinoline-7-carboxamide] | 99 | 50 to 100 | 1 |  | 
CCCc1nc(-c2ccc(Cl)cc2)nc2cc(C(=O)NCCc3cncn3C)ccc12 [Compound I-1, 2-(4-chlorophenyl)-N-[2-(1-methyl-1H-imidazol-5-yl)ethyl]-4-propylquinazoline-7-carboxamide] | > 99 | < 10 | 2 |  | 
CCOc1cc(-c2cnn(C)c2)nc2cc(C(=O)NCCCc3nnc[nH]3)ccc12 [Compound I-206, 4-ethoxy-2-(1-methyl-1H-pyrazol-4-yl)-N-[3-(4H-1,2,4-triazol-3-yl)propyl]quinoline-7-carboxamide] | 66 | > 100 | 2 |  | 
CCOc1cc(-c2ccc(F)cc2)nc2cc(C(=O)NCCc3nnc(N)[nH]3)ccc12 [Compound I-142, N-[2-(5-amino-4H-1,2,4-triazol-3-yl)ethyl]-4-ethoxy-2-(4-fluorophenyl)quinoline-7-carboxamide] | 89 | > 100 | 14 |  | 
